From US8759099B2, “Pancreatic islet separation method, and protective solution for protecting pancreatic islet tissue” (Otsuka Pharmaceutical Factory, Inc., priority 2010, dated 2014)

System: mouse islets
Assay: LDH leakage cytotoxicity of mouse islets cultured in the presence of neutrophil elastase
Type: cell-based
Conditions: FIG. 3
Method: The concentration of the neutrophil elastase inhibitor used in the isolation method of the present invention was examined as follows using the extracellular leakage of LDH (lactate dehydrogenase) (indicator for cytotoxicity) as an indicator.
First, mouse islets were cultured in the presence of neutrophil elastase at a concentration of 0.31 to 10 μg/mL and the supernatant was collected after a lapse of a certain time. Subsequently, the remaining mouse islets were homogenized and the islet suspension was collected. LDH contained in the collected supernatant and the islet suspension was measured by using a LDH assay kit to measure absorbance at 562 nm. The optimal concentration of the neutrophil elastase inhibitor was examined by adding 2 to 200 μM of the neutrophil elastase inhibitor, sivelestat, in culturing mouse islets in the presence of various concentrations of neutrophil elastase, and similarly measuring the amount of LDH. The cytotoxicity was expressed as the percentage (%) of the amount of LDH contained in the supernatant in the sum of the amount of LDH contained in the supernatant and the amount of LDH contained in the islet suspension.

CC(C)(C)C(=O)Oc1ccc(S(=O)(=O)Nc2ccccc2C(=O)NCC(=O)O)cc1 [sivelestat]
optimal concentration of the neutrophil elastase inhibitor (from suppression of LDH leakage among 2, 20, 200 μM): 20 µM
damage of islet cells (cytotoxicity, LDH in supernatant as % of total LDH) (mouse islets with neutrophil elastase 0.31 to 10 μg/mL, 2, 20 or 200 μM sivelestat compared, result at 20 μM): most suppressed
